In paper PMC12656329, “Specific Hepatorenal Toxicity and Cross-Species Susceptibility of Eight Representative Pesticides” (Toxics, 2025):
Entries after “also recorded” stand apart in the source; their conditions may differ. Where two headings read alike, the source gives them in different places.

Experiments:
[1] = tested on: four mammalian cell lines (CCC-HEL-1, 293T, IAR, NRK); assay: CCK-8 cytotoxicity, statements across the four cell lines; format: cell-based, human and rat; conditions: CCK-8 / heatmap of OD values
Protocol: (§1) The cytotoxicity of eight pesticides on four mammalian cell lines was assessed using the Cell Counting Kit-8 (CCK-8) assay. Initially, stock solutions of each pesticide were prepared by dissolving the compound in dimethyl sulfoxide (DMSO) to a final concentration of 500 g/L. For the assay, cells were seeded into 96-well plates at a density of 2 × 10^4 cells per well in 100 µL of medium and incubated for 24 h at 37 °C under a 5% CO2 atmosphere to allow for attachment. Subsequently, the culture medium was replaced with fresh medium containing the pesticides at a series of final concentrations (0, 10, 100, 200, 400, 800, 1000, and 2500 mg/L). Pesticide working concentrations were prepared through serial dilution of the 500 g/L DMSO stock solution, resulting in variable final DMSO concentrations across treatment groups (ranging from 0.002% to 0.5% v/v). A media-only blank (no cells) was included for background absorbance correction, and a solvent control (0.1% DMSO, no pesticide) was used to account for any vehicle effects. All conditions were performed in five replicates. […] At DMSO concentrations ranging from 0.1% to 0.2%, the viability of all four cell lines remained stable above 80%. At a 1% DMSO concentration, the viability of all four cell types was around 50% or higher (Supplementary Figure S5). Following 24 h of exposure, 10 µL of CCK-8 reagent was added to each well. Absorbance Measurement: After an additional 1 h of incubation in the dark, the optical density (OD) at 450 nm was recorded using a microplate reader. Cell viability was calculated by comparing the OD values of treated groups with those of the blank control. Although some test concentrations exceeded the water solubility of the pesticides, the combination of DMSO and serum in the culture medium maintained a uniform exposure system. No precipitation was observed during the experiment, ensuring that the measured effects are attributed to the bioavailable fraction of the compound.

IAR hepatocytes = assay: CCK-8 cytotoxicity assay, IAR; format: cell-based; conditions: Rattus norvegicus, Hepatocyte; CCK-8, 24 h exposure
Protocol: (§2) Human embryonic kidney 293T (HEK293T) cells and rat renal NRK cells were maintained in high-glucose DMEM supplemented with 10% fetal bovine serum (FBS) and 1% penicillin–streptomycin at 37 °C under 5% CO2 until reaching 70–80%. Human liver CCC-HEL-1 cells were cultured under identical conditions but with 20% FBS, while rat normal hepatocytes were grown in high-glucose MEM containing 20% FBS and 1% penicillin–streptomycin. Stock solutions (500 g/L) of eight pesticide standards were prepared in dimethyl sulfoxide (DMSO) and stored at −20 °C. Working concentrations were freshly diluted in serum-containing culture medium prior to each experiment.
as §1, with “compound. […]” for “compound.”
(§3) 1. Pesticide Exposure: After removing the medium, fresh medium containing gradient concentrations (0–2500 mg/L) of each pesticide was added (five replicates per concentration).
(§4) Following 24 h of exposure, 10 µL of CCK-8 reagent was added to each well.
(§5) 2. Absorbance Measurement: After 1 h of dark incubation, the OD at 450 nm was measured using a microplate reader.
(§6) 3. Cell Viability Calculation: Viability was determined by comparing the OD values of treated groups to the blank control. […]

293T renal cells [2] = assay: CCK-8 cytotoxicity assay, 293T; format: cell-based, human; conditions: CCK-8, 24 h exposure; for IC50: Homo sapiens, HEK-293T, 24 h
Protocol: as §2
as §1, with “compound. […]” for “compound.”
as §3, §4, §5, §6

CCC-HEL-1 hepatocytes [3] = assay: CCK-8 cytotoxicity assay, CCC-HEL-1; format: cell-based; conditions: Homo sapiens, Hepatocyte; CCK-8, 24 h exposure
Protocol: as §2
as §1, with “compound. […]” for “compound.”
as §3, §4, §5, §6

[4] = ref PPDB: Pesticide Properties DataBase, cited from earlier work
CCC-HEL-1 hepatocytes [5] = conditions: CCC-HEL-1 cells, 24 h exposure at median lethal concentration, vs control
Rat = conditions: cited from earlier work
NRK renal cells = assay: CCK-8 cytotoxicity assay, NRK; format: cell-based; conditions: Rattus norvegicus; CCK-8, 24 h exposure
Protocol: as §2
as §1, with “compound. […]” for “compound.”
as §3, §4, §5, §6

293T renal cells [6] = assay: ELISA of toxicity biomarkers (LDH, KIM-1) in culture supernatant, 293T; format: cell-based, human; conditions: 293T cells, 24 h exposure at median lethal concentration, vs control
Protocol: The levels of hepatotoxicity biomarkers (ALT, AST, ALP) and nephrotoxicity biomarkers (KIM-1, LDH) in cell culture supernatant were quantified using commercially available ELISA kits (Cloud-Clone Corp., Wuhan, China). 100 μL of the supernatant was added to the pre-coated wells and incubated according to the manufacturer’s protocol (five replicates). After washing, the appropriate detection antibody and substrate were added, and the absorbance was measured at 450 nm using microplate reader. The concentrations of the biomarkers were determined based on standard curves.

MRP2 in 293T renal cells = assay: MRP2 immunofluorescence staining, 293T; format: cell-based, human; conditions: 293T cells, 24 h at IC50, immunofluorescence, vs untreated controls
Protocol: Cells were seeded at a density of 1 × 10^5 cells per well in immunofluorescence-specific glass-bottom dishes and allowed to adhere for 24 h. […] Following treatment, cells were fixed with 4% paraformaldehyde for 15 min at room temperature and permeabilized with 0.1% Triton X-100 for 10 min. Non-specific binding was blocked with 5% bovine serum albumin (BSA) for 1 h at room temperature. Cells were then incubated with primary antibody against MRP2 (1:300 dilution) overnight at 4 °C. After three washes with PBS, cells were treated with secondary antibody (rabbit anti-IgG, 1:600 dilution) for 1 h at room temperature and washed three times with PBS. Anti-MRP2 antibody (Abcam, ab172630) and Alexa Fluor® 488-conjugated anti-rabbit IgG secondary antibody (Cell Signaling Technology, Danvers, MA, USA, 4412) were used for immunofluorescence staining. Nuclei were counterstained with DAPI Staining Solution (C1005, 10 mL) (Beyotime Biotechnology, Shanghai, China). Fluorescent images were captured using a 10× inverted fluorescence microscope. Quantitative analysis of fluorescence intensity was performed using ImageJ software 2.1.0 (National Institutes of Health, Bethesda, MD, USA).

Colinus virginianus = conditions: in vivo; cited from earlier work
[7] = cited from earlier work
[8] = cell lines as stated in the sentence
[9] = Rat, ref PPDB: Pesticide Properties DataBase

N#Cc1c(Cl)c(Cl)c(Cl)c(C#N)c1Cl [Chlorothalonil, chlorothalonil]
cytotoxicity (in words) [1, 8]: relatively lower cytotoxicity at specific concentrations
cytotoxicity (in words) ([1]; cell lines as stated in the sentence, listed as chlorothalonil): strongest cytotoxicity; also recorded: most cytotoxic agent
IC50 (IAR hepatocytes): 21.3 mg/L
293T IC50 (293T renal cells [2]): 32.6 mg/L
IC50 (293T renal cells [2]): 32.5 mg/L
IC50 (CCC-HEL-1 hepatocytes [3]): 48.1 mg/L
ADI - Acceptable Daily Intake ([4]; Rat SF=100): 0.015 mg kg⁻¹ bw day⁻¹
AST level (CCC-HEL-1 hepatocytes [5]): marked suppression
Mammals - Acute oral LD50 (Rat; [9]): > 5000 mg/kg
IC50 (NRK renal cells): 55.6 mg/L

CCOP(=S)(OCC)Oc1nc(Cl)c(Cl)cc1Cl [Chlorpyrifos, chlorpyrifos]
cytotoxicity (in words) [1]: lowest toxicity; also recorded: minimal direct cytotoxicity
IC50 (IAR hepatocytes): 898 mg/L
KIM-1 expression (293T renal cells [6]): significantly decreased; also recorded: statistically significant downregulation
IC50 (293T renal cells [2]): 444 mg/L
IC50 (CCC-HEL-1 hepatocytes [3]): 633 mg/L
ADI - Acceptable Daily Intake ([4]; Rat SF=100): 0.001 mg kg⁻¹ bw day⁻¹
AST level (CCC-HEL-1 hepatocytes [5]): marked suppression
LDH level (CCC-HEL-1 hepatocytes [5]): most dramatic LDH elevation
Mammals - Acute oral LD50 (Rat; [9]): 66 mg/kg
MRP2 protein level (MRP2 in 293T renal cells): most pronounced effect; also recorded: most pronounced downregulation
IC50 (NRK renal cells): 990 mg/L

CC1COC(Cn2cncn2)(c2ccc(Oc3ccc(Cl)cc3)cc2Cl)O1 (stereo not shown) [Difenoconazole, difenoconazole]
cytotoxicity (in words) [1, 8]: strong cytotoxic effects
IC50 (IAR hepatocytes): 132 mg/L
KIM-1 expression (293T renal cells [6]): significantly decreased
IC50 (293T renal cells [2]): 209 mg/L
IC50 (CCC-HEL-1 hepatocytes [3]): 374 mg/L
ADI - Acceptable Daily Intake ([4]; Rat SF=100): 0.01 mg kg⁻¹ bw day⁻¹
ALT level (CCC-HEL-1 hepatocytes [5]): reduced ALT activity
AST level (CCC-HEL-1 hepatocytes [5]): increased levels
AST level (CCC-HEL-1 hepatocytes [5]; listed as difenoconazole): elevated AST levels
IC50 (NRK renal cells): 498 mg/L

CCCCC(C#N)(Cn1cncn1)c1ccc(Cl)cc1 (stereo not shown) [Myclobutanil, myclobutanil]
cytotoxicity (in words) [1, 8]: strong cytotoxic effects
IC50 (IAR hepatocytes): 567 mg/L
Birds - Acute LD50 (Colinus virginianus): 510 mg/kg
LDH release (293T renal cells [6]): significantly elevated LDH release
IC50 (293T renal cells [2]): 458 mg/L
IC50 (CCC-HEL-1 hepatocytes [3]): 455 mg/L
ADI - Acceptable Daily Intake ([4]; Rat SF=100): 0.025 mg kg⁻¹ bw day⁻¹
LDH level (CCC-HEL-1 hepatocytes [5]): LDH elevation
Mammals - Acute oral LD50 (Rat; rat, in vivo, po): 1600 mg/kg
MRP2 protein level (MRP2 in 293T renal cells): most pronounced effect
Toxicokinetic Parameter (Concentration), mean ([7]; parent compound, ref [1] (Ding et al. 2023, ref 74)): 38.3 ng/g creatinine
IC50 (NRK renal cells): 588 mg/L

Cc1cc(C)nc(Nc2ccccc2)n1 [Pyrimethanil, pyrimethanil]
IC50 (IAR hepatocytes): 362 mg/L
LDH release (293T renal cells [6]): significantly elevated LDH release
LDH release (293T renal cells [6]; listed as pyrimethanil): significantly increased
IC50 (293T renal cells [2]): 111 mg/L
IC50 (CCC-HEL-1 hepatocytes [3]): 505 mg/L
ADI - Acceptable Daily Intake ([4]; Rat SF=100): 0.17 mg kg⁻¹ bw day⁻¹
ALP level (CCC-HEL-1 hepatocytes [5]): isolated ALP elevation
ALT level (CCC-HEL-1 hepatocytes [5]): normal ALT levels
LDH level (CCC-HEL-1 hepatocytes [5]): LDH elevation
ALP level (CCC-HEL-1 hepatocytes [5]; listed as pyrimethanil): substantial increases
Mammals - Acute oral LD50 (Rat; [9]): 4150 mg/kg
IC50 (NRK renal cells): 192 mg/L

Oc1nc(Cl)c(Cl)cc1Cl [TCPy, 3,5,6-Trichloro-2-pyridinol]
Toxicokinetic Parameter (Concentration), highest level ([7]; metabolite of chlorpyrifos, ref [3] (Huen et al. 2012, ref 76)): 6.27 ng/mL

CC(C)(C)C(O)(CCc1ccc(Cl)cc1)Cn1cncn1 (stereo not shown) [Tebuconazole, tebuconazole]
cytotoxicity (in words) [1, 8]: relatively lower cytotoxicity at specific concentrations
IC50 (IAR hepatocytes): 188 mg/L
Birds - Acute LD50 (Colinus virginianus): 1988
IC50 (293T renal cells [2]): 41.5 mg/L
IC50 (CCC-HEL-1 hepatocytes [3]): 135 mg/L
ADI - Acceptable Daily Intake ([4]; Dog SF=100): 0.03 mg kg⁻¹ bw day⁻¹
ALP level (CCC-HEL-1 hepatocytes [5]): concurrent elevations of both ALT and ALP
LDH level (CCC-HEL-1 hepatocytes [5]): LDH elevation
ALP level (CCC-HEL-1 hepatocytes [5]; listed as tebuconazole): substantial increases
Mammals - Acute oral LD50 (Rat; rat, in vivo, po): 1700
IC50 (NRK renal cells): 171 mg/L

CC(C)(C)C(=O)C(Oc1ccc(Cl)cc1)n1cncn1 (stereo not shown) [Triadimefon, triadimefon]
cytotoxicity (in words) [1, 8]: strong cytotoxic effects
IC50 (IAR hepatocytes): 878 mg/L
IC50 (293T renal cells [2]): 107 mg/L
IC50 (CCC-HEL-1 hepatocytes [3]): 219 mg/L
ADI - Acceptable Daily Intake ([4]; basis species not given): 0.03 mg kg⁻¹ bw day⁻¹
IC50 (NRK renal cells): 977 mg/L
